pIC50: −log10 of the molar value.
Tests used:
Type in all cases: biochemical
[1] = test system: MYC; assay: In vitro transcription-translation (IVTT) assay, MYC reporter; settings: IVTT assay, HeLa S3 lysate, MYC reporter, normalized sfGFP/mCherry ratio; half-log dilutions 30 μM-0.1 μM, 2 hrs at 30° C.
Summary of the method: (§1)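 Reporter: mCherry, P2A, then 3×FLAG-target peptide-sfGFP fusion, IRES-initiated; HeLa S3 lysate IVTT; cpd dilutions 30 μM−0.1 μM half-log in 100% DMSO (dilution-plate conc); DNA added last; 2 h, 30° C; PBS quench.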

[2] = test system: CCND1; assay: In vitro transcription-translation (IVTT) assay, CCND1 reporter; settings: IVTT assay, HeLa S3 lysate, sfGFP/mCherry ratio
Summary of the method: as §1

[3] = test system: NFKB1; assay: In vitro transcription-translation (IVTT) assay, NFKB1 reporter; settings: HeLa S3 lysate, sfGFP/mCherry ratio
Method: (§2) In vitro transcription-translation assay setup: Each assay includes a master mix containing lysate and shared components, a 96-well plate containing compound titrations for testing, a 96-well DNA plate with reporter constructs to be tested, 96-well skirted PCR plates, and 96-well flat-bottom, black, fluorescent assay plates. Reaction materials setup: (A) Master mix—15 mL conical tube (3 mL of HeLa S3 Lysate described above; 0.6 mL of ThermoFisher Accessory Proteins (#88882); 1.2 ml of ThermoFisher Reaction Mix (#88882); 0.54 mL of nuclease-free Water); (B) 96-Well Master Mix+Compound Plate (Half-log dilutions (30 μM−0.1 μM) of 4 compounds of interest are prepared in 100% DMSO); 96-Well DNA Plate (Five DNA constructs are plated into single columns within the plate. Row 1 of the column contains nuclease free H2O, all other wells contain 110 ng/μL plasmid DNA). Reactions are started by mixing 155 μL of master mix and 3.5 μL of compound serial dilutions, then 9.1 μL of master mix+compound mixture is aliquoted across 5 96-well plates. Reactions begin with final addition of 2 μL of DNA for a 11.1 μL reaction volume in each well. The entire plate is sealed, and incubated for 2 hrs at 30° C. After 2 hrs, quench the assay using 45 μL of PBS, and transfer 50 μL to a flat-bottom black microplate Quantify the sfGFP and mCherry signals from each well on each plate, taking 3 reads of each plate, and perform data analysis below.
(§3) In vitro transcription-translation assay data analysis: Each plate is read three times in channels for both sfGFP and mCherry signals. The average signal across these 3 reads is then calculated for further analysis. Control wells containing no DNA reporter are subtracted from reporter wells in the same column to remove auto-fluorescence of the lysate. Then, the ratio of sfGFP/mCherry is calculated per well, and these ratios are averaged across the triplicate experiments on the same plate. Finally, the ratio of each titration concentration is normalized to the no drug control to create the normalized stalling metric. The error on this measurement is determined by propagating error through the averaging and normalization steps. Values are plotted and fit for IC50 determination for each test sequence and titration of compound.

[4] = test system: MCL-1; assay: In vitro transcription-translation (IVTT) assay, MCL-1 reporter; settings: IVTT assay, HeLa S3 lysate, sfGFP/mCherry ratio; read-out: MCL1 IC50
Summary of the method: as §1

[5] = test system: CCNTB1; assay: In vitro transcription-translation (IVTT) assay, CCNTB1 reporter; settings: HeLa S3 lysate, sfGFP/mCherry ratio
Method: as §2, §3

Row | Compound | pIC50 [2] | pIC50 [3] | pIC50 [4] | pIC50 [5] | pIC50 [1]
1 | O=C(NCC[C@H]1CCCN1)O[C@@H]1[C@@H](O)CN[C@@H]1Cc1ccc(-c2cnco2)cc1 [V192048, (2R,3S,4S)-4-hydroxy-2-{[4-(1,3-oxazol-5-yl)phenyl]methyl}pyrrolidin-3-yl N-{2-[(2R)-pyrrolidin-2-yl]ethyl}carbamate] | > 5.00 |  | > 5.00 | > 5.00 | > 5.00
2 | O=C(NCCC1CCNCC1)O[C@@H]1[C@@H](O)CN[C@@H]1Cc1ccc(-c2ccccc2)cc1 [V192050, (2R,3S,4S)-2-{[1,1′-biphenyl]-4-ylmethyl}-4-hydroxypyrrolidin-3-yl N-[2-(piperidin-4-yl)ethyl]carbamate] | < 4.52 |  | 4.70 to 5.00 | 4.70 to 5.00 | 4.70 to 5.00
3 | O=C(NCc1cccc(F)c1)O[C@@H]1[C@@H](O)CN[C@@H]1Cc1ccc(-c2cnoc2)cc1 [V190543, (2R,3S,4S)-4-hydroxy-2-{[4-(1,2-oxazol-4-yl)phenyl]methyl}pyrrolidin-3-yl N-[(3-fluorophenyl)methyl]carbamate] | < 4.52 |  | < 4.52 | 4.52 to 4.70 | > 5.00
4 | O=C(NCC[C@H]1CCCN1)O[C@@H]1[C@@H](O)CN[C@@H]1Cc1ccc(-c2ccc3c(c2)CC(F)(F)C3)cc1 [V192040, (2R,3S,4S)-2-{[4-(2,2-difluoro-1,3-dihydroinden-5-yl)phenyl]methyl}-4-hydroxypyrrolidin-3-yl N-{2-[(2R)-pyrrolidin-2-yl]ethyl}carbamate] | 4.52 to 4.70 |  | 4.70 to 5.00 | > 5.00 | 4.70 to 5.00
5 | O=C(NCc1ccccc1)O[C@@H]1[C@@H](O)CN[C@@H]1Cn1cccn1 [V188209, (2R,3S,4S)-4-hydroxy-2-(pyrazol-1-ylmethyl)pyrrolidin-3-yl N-benzylcarbamate] | < 4.52 |  | < 4.52 | < 4.52 | < 4.52
6 | O=C(NCc1ccc2c(c1)CCNC2)O[C@@H]1[C@@H](O)CN[C@@H]1Cc1ccc(-c2ccc(S(F)(F)(F)(F)F)cc2)cc1 [V192059, (2R,3S,4S)-4-hydroxy-2-{[4′-(pentafluoro-lambda6-sulfanyl)-[1,1′-biphenyl]-4-yl]methyl}pyrrolidin-3-yl N-(1,2,3,4-tetrahydroisoquinolin-6-ylmethyl)carbamate] | < 4.52 |  | < 4.52 | < 4.52 | < 4.52
7 | COc1ccc(C[C@H]2NC[C@H](O)[C@H]2OC(=O)NCC[C@@]2(C)CCCN2)cc1 [V192041, (2R,3S,4S)-4-hydroxy-2-(4-methoxybenzyl)pyrrolidin-3-yl (2-((R)-2-methylpyrrolidin-2-yl)ethyl)carbamate] | 4.70 to 5.00 |  | > 5.00 | > 5.00 | > 5.00
8 | COc1ccc(C[C@H]2NC[C@H](O)[C@H]2OC(=O)NCc2cc(F)c(O)c(F)c2)cc1 [V191939, (2R,3S,4S)-4-hydroxy-2-[(4-methoxyphenyl)methyl]pyrrolidin-3-yl N-[(3,5-difluoro-4-hydroxyphenyl)methyl]carbamate] | 4.70 to 5.00 |  | > 5.00 | > 5.00 | 4.70 to 5.00
9 | O=C(NCc1ccc2c(c1)CCNC2)O[C@@H]1[C@@H](O)CN[C@@H]1Cc1ccc(-c2ccc(C(F)(F)F)cc2)cc1 [V192058, (2R,3S,4S)-4-hydroxy-2-{[4′-(trifluoromethyl)-[1,1′-biphenyl]-4-yl]methyl}pyrrolidin-3-yl N-(1,2,3,4-tetrahydroisoquinolin-6-ylmethyl)carbamate] | < 4.52 |  | < 4.52 | 4.52 to 4.70 | < 4.52
10 | COc1ccc(C[C@H]2NC[C@H](O)[C@H]2OC(=O)NCCN2CCCS2(=O)=O)cc1 [V191944, (2R,3S,4S)-4-hydroxy-2-[(4-methoxyphenyl)methyl]pyrrolidin-3-yl N-[2-(1,1-dioxo-1lambda6,2-thiazolidin-2-yl)ethyl]carbamate] | 4.70 to 5.00 |  | > 5.00 | > 5.00 | > 5.00

Continued, in another order:

Row | pIC50 [2] | pIC50 [3] | pIC50 [4] | pIC50 [5] | Compound | pIC50 [1]
11 | > 5.00 | > 5.00 |  |  | O=C(NCc1cccc(F)c1)O[C@@H]1[C@@H](O)CN[C@@H]1Cc1ccc(C(F)(F)F)cc1 [V192896, (2R,3S,4S)-4-hydroxy-2-{[4-(trifluoromethyl)phenyl]methyl}pyrrolidin-3-yl N-[(3-fluorophenyl)methyl]carbamate] | > 5.00
12 | 4.70 to 5.00 |  | > 5.00 | > 5.00 | O=C(NCc1cccc(F)c1)O[C@@H]1[C@@H](O)CN[C@@H]1Cc1ccc(-c2ccc3ncsc3c2)cc1 [V192103, (2R,3S,4S)-2-{[4-(1,3-benzothiazol-6-yl)phenyl]methyl}-4-hydroxypyrrolidin-3-yl N-[(3-fluorophenyl)methyl]carbamate] | > 5.00
13 | > 5.00 |  | > 5.00 | > 5.00 | O=C(NCCC1CCNCC1)O[C@@H]1[C@@H](O)CN[C@@H]1Cc1ccc(-c2cncs2)cc1 [V192112, (2R,3S,4S)-4-hydroxy-2-{[4-(1,3-thiazol-5-yl)phenyl]methyl}pyrrolidin-3-yl N-[2-(piperidin-4-yl)ethyl]carbamate] | > 5.00
14 | > 5.00 |  | > 5.00 | 4.70 to 5.00 | COc1ccc(C[C@H]2NC[C@H](O)[C@H]2OC(=O)NCc2ccnc(N3CC(O)C3)c2)cc1 [V192067, (2R,3S,4S)-4-hydroxy-2-(4-methoxybenzyl)pyrrolidin-3-yl ((2-(3-hydroxyazetidin-1-yl)pyridin-4-yl)methyl)carbamate] | > 5.00
15 | < 4.52 |  | < 4.52 | < 4.52 | O=C(NCc1cccc(F)c1)O[C@@H]1[C@@H](O)CN[C@@H]1Cc1ccc(-c2ccc(Cl)s2)cc1 [V192156, (2R,3S,4S)-2-{[4-(5-chlorothiophen-2-yl)phenyl]methyl}-4-hydroxypyrrolidin-3-yl N-[(3-fluorophenyl)methyl]carbamate] | < 4.52
16 | 4.52 to 4.70 |  | > 5.00 | > 5.00 | O=C(NCc1ccc2c(c1)CCNC2)O[C@@H]1[C@@H](O)CN[C@@H]1Cc1ccc(-c2ccc3c(c2)CC(F)(F)C3)cc1 [V192060, (2R,3S,4S)-2-{[4-(2,2-difluoro-1,3-dihydroinden-5-yl)phenyl]methyl}-4-hydroxypyrrolidin-3-yl N-(1,2,3,4-tetrahydroisoquinolin-6-ylmethyl)carbamate] | > 5.00
17 | > 5.00 |  | > 5.00 | 4.70 to 5.00 | COc1ccc(C[C@H]2NC[C@H](O)[C@H]2OC(=O)NCc2ccnc(N3CC(F)(F)C3)c2)cc1 [V192066, (2R,3S,4S)-4-hydroxy-2-[(4-methoxyphenyl)methyl]pyrrolidin-3-yl N-{[2-(3,3-difluoroazetidin-1-yl)pyridin-4-yl]methyl}carbamate] | > 5.00
18 | > 5.00 |  | > 5.00 | > 5.00 | O=C(NCc1ccc2c(c1)CCNC2)O[C@@H]1[C@@H](O)CN[C@@H]1Cc1ccc(-c2cncs2)cc1 [V192109, (2R,3S,4S)-4-hydroxy-2-(4-(thiazol-5-yl)benzyl)pyrrolidin-3-yl ((1,2,3,4-tetrahydroisoquinolin-6-yl)methyl)carbamate] | > 5.00

Source: patent publication US20250129021A1, “SMALL MOLECULE PROTEIN SYNTHESIS MODULATORS” (Interdict Bio, Inc., priority 2023, published 2025)
